Test results taken from patent publication US10154988B2, “Methods and compositions for treating schizophrenia” (The Johns Hopkins University, priority 2012, dated 2018).
Like-named read-outs stand apart in the source and are kept apart here.

What was measured:
[1] = system: aged-impaired (AI) rats; assay: eight-arm Radial Arm Maze task, one-hour delay (levetiracetam, valproate, combination); type: in vivo, rat; details: for average no. of errors ± SEM in retention test: one-hour delay, vehicle 2.00±0.42; for reducing the number of errors in the radial arm maze: levetiracetam on its own
Description: The effects of levetiracetam on the spatial memory retention of aged-impaired (AI) rats are assessed in a Radial Arm Maze (RAM) behavioral task using vehicle control and five different dosage levels of levetiracetam (1.25 mg/kg/day, 2.5 mg/kg/day, 5 mg/kg/day, 10 mg/kg/day and 20 mg/kg/day). RAM behavioral tasks are preformed on ten AI rats. All six treatment conditions are tested on all ten rats, as described above for the MWM test. The RAM apparatus used consists of eight equidistantly-spaced arms. An elevated maze arm (7 cm width×75 cm length) projects from each facet of an octagonal center platform (30 cm diameter, 51.5 cm height). Clear side walls on the arms are 10 cm high and are angled at 65° to form a trough. A food well (4 cm diameter, 2 cm deep) is located at the distal end of each arm. Froot Loops™ (Kellogg Company) are used as rewards. Blocks constructed of Plexiglas™ (30 cm height×12 cm width) can be positioned to prevent entry to any arm. Numerous extra maze cues surrounding the apparatus are also provided. The AI rats are initially subjected to a pre-training test (Chappell et al. Neuropharmacology 37: 481-487, 1998). The pre-training test consists of a habituation phase (4 days), a training phase on the standard win-shift task (18 days) and another training phase (14 days) in which a brief delay is imposed between presentation of a subset of arms designated by the experimenter (e.g., 5 arms available and 3 arms blocked) and completion of the eight-arm win-shift task (i.e., with all eight arms available). In the habituation phase, rats are familiarized to the maze for an 8-minute session on four consecutive days. In each of these sessions food rewards are scattered on the RAM, initially on the center platform and arms and then progressively confined to the arms. After this habituation phase, a standard training protocol is used, in which a food pellet is located at the end of each arm. Rats receive one trial each day for 18 days. Each daily trial terminates when all eight food pellets have been obtained or when either 16 choices are made or 15 minutes had elapsed. After completion of this training phase, a second training phase is carried out in which the memory demand is increased by imposing a brief delay during the trial. At the beginning of each trial, three arms of the eight-arm maze are blocked. Rats are allowed to obtain food on the five arms to which access is permitted during this initial ‘information phase’ of the trial. Rats are then removed from the maze for 60 seconds, during which time the barriers on the maze are removed, thus allowing access to all eight arms. Rats are then placed back onto the center platform and allowed to obtain the remaining food rewards during this ‘retention test’ phase of the trial. The identity and configuration of the blocked arms varies across trials. The number of “errors” the AI rats make during the retention test phase is tracked. An error occurs in the trial if the rats enter an arm from which food had already been retrieved in the pre-delay component of the trial, or if it re-visits an arm in the post-delay session that has already been visited. After completion of the pre-training test, rats are subjected to trials with more extended delay intervals, i.e., a one-hour delay, between the information phase (presentation with some blocked arms) and the retention test (presentation of all arms). During the delay interval, rats remain off to the side of the maze in the testing room, on carts in their individual home cages. AI rats are pretreated 30-40 minutes before daily trials with a one-time shot of the following six conditions: 1) vehicle control (0.9% saline solution); 2) levetiracetam (1.25 mg/kg/day); 3) levetiracetam (2.5 mg/kg/day); 4) levetiracetam (5 mg/kg/day); 5) levetiracetam (10 mg/kg/day); 6) levetiracetam (20 mg/kg/day); […] Injections are given every other day with intervening washout days. Each AI rat is treated with all six conditions within 23 days of testing. […]

[2] = levetiracetam blood plasma levels in aMCI patients; type: in vivo; details: human
Text: Visit 1: At the end of the first drug/placebo period 2 weeks after the Baseline Visit, the medical, neurological and psychiatric evaluations and cognitive testing are repeated. The subject is also clinically evaluated for suicidal ideation. Blood is drawn again to repeat the standard tests and to determine whether there are any changes related to drug treatment; the subject's blood levetiracetam level is also obtained. All medication that is dispensed at the Baseline Visit (drug or placebo) is collected and subject compliance with the medication regimen is assessed. The first fMRI session (with cognitive tests) is conducted on the same day, either immediately before or immediately after the clinical assessment. Subjects discontinue first period treatment at this visit.
Visit 2: At approximately 2 weeks after the Washout Visit (i.e., 2 weeks after starting the second treatment period), the medical, neurological and psychiatric evaluations and the cognitive testing are repeated. The subject is clinically evaluated for suicidal ideation. Blood is drawn again to repeat the standard tests and to determine whether there are any changes related to drug treatment; the subject's blood levetiracetam level is also obtained. All medication that is dispensed at the Washout Visit is collected and subject compliance with the medication regimen is assessed. The second fMRI session (with cognitive tests) is repeated on the same day, either immediately before or immediately after the clinical assessment.
Visit 2: At approximately 2 weeks after the Washout Visit (i.e., 2 weeks after starting the second treatment period), the medical, neurological and psychiatric evaluations and the cognitive testing are repeated. The subject is clinically evaluated for suicidal ideation. […] All medication being dispensed at the Washout Visit is collected and subject compliance with the medication regimen is assessed. […]
Human – in the human studies described in Examples 3 and 4, a subject's levetiracetam blood plasma level is assessed at each visit. […]

- concentration at 2 weeks ([2]; 62.5 mg BID cohort (125 mg/day), SEM±0.288, read-out: mean levetiracetam blood plasma level): 2880 ng/mL
- concentration at 2 weeks ([2]; 125 mg BID cohort (250 mg/day), SEM±0.53, read-out: mean levetiracetam blood plasma level): 4400 ng/mL
- concentration at 2 weeks ([2]; 250 mg BID cohort (500 mg/day), SEM±0.92, read-out: mean levetiracetam blood plasma level): 7900 ng/mL
SMILES: CC[C@@H](C(N)=O)N1CCCC1=O [levetiracetam, (2S)-2-(2-oxopyrrolidin-1-yl) butanamide]
- average no. of errors ± SEM in retention test ([1]; 5 mg/kg/day i.p., t(9)=2.18, p=0.057): 0.75±0.32
- average no. of errors ± SEM in retention test ([1]; 10 mg/kg/day i.p., t(9)=2.37, p=0.042): 0.80±0.27
- performance of AI rats in the radial maze task ([1]; levetiracetam 20 mg/kg): fails to improve the performance
- reducing the number of errors in the radial arm maze ([1]; 1.25 mg/kg i.p.): not at 1.25 mg/kg or 2.5 mg/kg
- reducing the number of errors in the radial arm maze ([1]; 2.5 mg/kg i.p.): not at 1.25 mg/kg or 2.5 mg/kg
- reducing the number of errors in the radial arm maze ([1]; 5-10 mg/kg i.p.): effective in reducing the number of errors
